Results reported in patent publication US7868026B2, “Therapeutic compounds” (Pfizer Inc., priority 2005, dated 2011).
pIC50, pKi: −log10 of the molar value. Like-named read-outs stand apart in the source and are kept apart here.

Assays:
Format in all cases: biochemical
[1] = target: T1, CYP3A4 (Homo sapiens, UniProt P08684); assay: Determination of IC50 against CYP3A4 by measurement of inhibition of midazolam metabolism (human liver microsomes, 1-hydroxymidazolam by LC-MS/MS); parameters: 0.1 mg/mL human liver microsomes; conditions: 2 μM midazolam, 0.1 mg/mL human liver microsomes
T1 sequence (P08684 whole entry): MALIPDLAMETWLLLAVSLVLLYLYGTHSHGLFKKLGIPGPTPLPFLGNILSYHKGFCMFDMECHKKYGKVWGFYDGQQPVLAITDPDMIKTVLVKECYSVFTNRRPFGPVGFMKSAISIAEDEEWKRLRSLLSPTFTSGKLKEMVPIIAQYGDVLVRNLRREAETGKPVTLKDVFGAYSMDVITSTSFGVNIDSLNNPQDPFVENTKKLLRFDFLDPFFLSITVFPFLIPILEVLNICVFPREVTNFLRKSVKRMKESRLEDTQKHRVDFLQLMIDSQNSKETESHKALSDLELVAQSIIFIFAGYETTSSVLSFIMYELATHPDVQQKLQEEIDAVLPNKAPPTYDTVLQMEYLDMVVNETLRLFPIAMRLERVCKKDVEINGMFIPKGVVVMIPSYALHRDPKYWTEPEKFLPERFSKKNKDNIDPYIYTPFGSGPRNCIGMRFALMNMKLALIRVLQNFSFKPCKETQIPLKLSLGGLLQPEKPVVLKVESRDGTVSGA
Summary of the method: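 Human liver microsomes (0.1 mg/mL) incubated 8 min with 2 μM midazolam and 1 mM NADPH in 100 mM potassium phosphate, pH 7.4. 1-Hydroxymidazolam quantified by LC-MS/MS (MRM) as peak area ratio to internal standard against a metabolite standard curve.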

[2] = target: T1, CYP3A4; assay: Determination of compound Kiapp against recombinant CYP3A4 enzyme (BFC fluorescent substrate)
Summary of the method: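 Recombinant CYP3A4 (5.5 or 8 nM, with or without b5 depending on source) pre-incubated with inhibitor ≥30 min at room temperature in 100 mM sodium phosphate pH 7.0, 5 mM TCEP, 2% DMF. Reaction started with 200 uM NADPH and 5 uM BFC; initial fluorescence rates over 5 min fitted to Morrison tight-binding (non-partial) or Szedlacsek (partial) equations for Kiapp.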

[3] = target: T1, CYP3A4; assay: Determination of IC50 against CYP3A4 by measurement of inhibition of testosterone metabolism (human liver microsomes, 6-β-OH-testosterone by LC-MS/MS); parameters: 0.1 mg/mL human liver microsomes; conditions: read-out: IC50 (Testo.)
Summary of the method: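 Human liver microsomes (0.1 mg/mL) incubated with 25 μM testosterone and 1 mM NADPH in 100 mM potassium phosphate, pH 7.4, for eight minutes. 6-β-OH-testosterone measured by LC-MS/MS in MRM mode against an internal standard and quantified from a metabolite standard curve.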

[4] = Baculo. enzyme preparation, read-out: Kiapp (BFC, Baculo.)
[5] = Super. enzyme preparation, read-out: Kiapp (BFC, Super.)

Row | pIC50 [1] | pKi [2, 4] | pIC50 [3] | pKi [2, 5] | SMILES
1 | < 6.12 | < 6.00 | < 6.12 | – | CN1CCN(C(=O)c2ccccc2S(=O)(=O)Nc2cccnc2)CC1 [Example 35, 2-[(4-methylpiperazin-1-yl)carbonyl]-N-pyridin-3-ylbenzenesulfonamide]
2 | 7.28 | 6.85 | 7.19 | 7.55 | COc1cncc(NS(=O)(=O)c2ccc(Cl)cc2C(=O)NCc2ccc(F)cc2)c1 [Example 310, 5-chloro-N-(4-fluorobenzyl)-2-{[(5-methoxypyridin-3-yl)amino]sulfonyl}benzamide]
3 | 8.12 | 7.57 | 8.02 | 8.39 | Cc1cncc(NS(=O)(=O)c2ccccc2C(=O)N(C)Cc2ccc(F)c(F)c2)c1 [Example 286, N-(3,4-difluorobenzyl)-N-methyl-2-{[(5-methylpyridin-3-yl)amino]sulfonyl}benzamide]
4 | 7.89 | 7.46 | 7.59 | 8.27 | Cc1cncc(NS(=O)(=O)c2ccccc2C(=O)N(C)CC2CCCC2)c1 [Example 347, N-(cyclopentylmethyl)-N-methyl-2-{[(5-methylpyridin-3-yl)amino]sulfonyl}benzamide]
5 | 6.49 | < 6.00 | 6.47 | – | O=C(NCC1CC1)c1ccccc1S(=O)(=O)Nc1cccnc1 [Example 48, N-(cyclopropylmethyl)-2-[(pyridin-3-ylamino)sulfonyl]benzamide]
6 | 6.30 | < 6.00 | > 8.52 | 6.56 | CNC(=O)c1ccc(CNC(=O)c2ccccc2S(=O)(=O)Nc2cccnc2)cc1 [Example 81, N-{4-[(methylamino)carbonyl]benzyl}-2-[(pyridin-3-ylamino)sulfonyl]benzamide]
7 | 8.40 | 7.84 | 7.80 | 8.40 | CCOc1cncc(NS(=O)(=O)c2ccccc2C(=O)NCc2ccc(F)c(F)c2)c1 [Example 290, N-(3,4-difluorobenzyl)-2-{[(5-ethoxypyridin-3-yl)amino]sulfonyl}benzamide]
8 | 7.96 | 7.80 | 7.92 | 8.05 | COc1ccncc1NS(=O)(=O)c1ccccc1C(=O)NCCc1ccccc1OC(F)(F)F [Example 221, 2-{[(4-methoxypyridin-3-yl)amino]sulfonyl}-N-{2-[2-(trifluoromethoxy)phenyl]ethyl} benzamide]
9 | 7.21 | 6.29 | 7.02 | 7.38 | COc1cncc(NS(=O)(=O)c2ccc(Cl)cc2C(=O)N2CCCC(C)C2)c1 (stereo not drawn) [Example 308, 4-chloro-N-(5-methoxypyridin-3-yl)-2-[(3-methylpiperidin-1-yl)carbonyl]benzenesulfonamide]
10 | 7.37 | 6.67 | 7.00 | 7.32 | CCOc1cncc(NS(=O)(=O)c2ccccc2C(=O)NC2CCCC2)c1 [Example 287, N-cyclopentyl-2-{[(5-ethoxypyridin-3-yl)amino]sulfonyl}benzamide]
11 | > 8.52 | 7.57 | 7.89 | 8.01 | COc1cncc(NS(=O)(=O)c2ccccc2C(=O)NCc2c(F)cccc2Cl)c1 [Example 213, N-(2-chloro-6-fluorobenzyl)-2-{[(5-methoxypyridin-3-yl)amino]sulfonyl}benzamide]
12 | < 6.12 | 7.42 | < 6.12 | 8.09 | COc1cncc(NS(=O)(=O)c2ccccc2C(=O)NCCCc2ccccc2OC)c1 [Example 234, N-[3-(2-methoxyphenyl)propyl]-2-{[(5-methoxypyridin-3-yl)amino]sulfonyl}benzamide]
13 | 7.17 | 6.19 | 7.08 | – | CCC(C)(C)NC(=O)c1ccccc1S(=O)(=O)Nc1cccnc1 [Example 38, N-(1,1-dimethylpropyl)-2-[(pyridin-3-ylamino)sulfonyl]benzamide]
14 | 7.82 | 7.10 | 7.64 | 7.74 | COc1cncc(NS(=O)(=O)c2ccccc2C(=O)N(C)Cc2ccccc2)c1 [Example 372, N-benzyl-2-{[(5-methoxypyridin-3-yl)amino]sulfonyl}-N-methylbenzamide]
15 | 7.52 | 7.28 | 7.19 | 8.55 | COc1cncc(NS(=O)(=O)c2ccccc2C(=O)NC(C)(C)c2ccccc2)c1 [Example 381, 2-{[(5-methoxypyridin-3-yl)amino]sulfonyl}-N-(1-methyl-1-phenylethyl)benzamide]
16 | 7.62 | 7.12 | 7.54 | 8.03 | Cc1cccc(CCNC(=O)c2ccccc2S(=O)(=O)Nc2cccnc2)c1 [Example 76, N-[2-(3-methylphenyl)ethyl]-2-[(pyridin-3-ylamino)sulfonyl]benzamide]

Row | pIC50 [1] | pKi [2, 4] | pIC50 [3] | pKi [2, 5] | SMILES
17 | < 6.12 | < 6.00 | < 6.12 | – | O=C(c1ccccc1S(=O)(=O)Nc1cccnc1)N1CCC(O)CC1 [Example 28, 2-[(4-hydroxypiperidin-1-yl)carbonyl]-N-pyridin-3-ylbenzenesulfonamide]
18 | > 8.52 | 7.74 | 7.82 | 8.31 | COc1cncc(NS(=O)(=O)c2ccccc2C(=O)NC(C)(C)c2ccc(F)c(F)c2)c1 [Example 148, N-[1-(3,4-difluorophenyl)-1-methylethyl]-2-{[(5-methoxypyridin-3-yl)amino]sulfonyl}benzamide]
19 | 7.85 | 6.45 | 7.18 | 7.33 | COc1cncc(NS(=O)(=O)c2ccccc2C(=O)NC2CCCC2)c1 [Example 214, N-cyclopentyl-2-{[(5-methoxypyridin-3-yl)amino]sulfonyl}benzamide]
20 | 7.66 | 6.45 | 7.28 | 7.40 | CCOc1ccncc1NS(=O)(=O)c1ccccc1C(=O)NC(C)C1CC1 (stereo not drawn) [Example 270, N-(1-cyclopropylethyl)-2-{[(4-ethoxypyridin-3-yl)amino]sulfonyl}benzamide]
21 | 7.03 | 6.71 | 6.89 | 6.34 | Cc1cncc(NS(=O)(=O)c2ccccc2C(=O)N2CCCC2)c1 [Example 321, N-(5-methylpyridin-3-yl)-2-(pyrrolidin-1-ylcarbonyl)benzenesulfonamide]
22 | 7.48 | 7.06 | 7.31 | 7.63 | CCCCCNC(=O)c1ccccc1S(=O)(=O)N(C)c1cncc(OC)c1 [Example 364, 2-{[(5-methoxypyridin-3-yl)(methyl)amino]sulfonyl}-N-pentylbenzamide]
23 | 7.43 | 6.50 | 7.72 | 7.17 | COc1ccc(CNC(=O)c2ccccc2S(=O)(=O)N(C)c2cccnc2)cc1 [Example 336, N-(4-methoxybenzyl)-2-{[methyl(pyridin-3-yl)amino]sulfonyl}benzamide]
24 | 6.90 | 6.01 | 6.67 | 6.85 | CCOCCNC(=O)c1ccccc1S(=O)(=O)Nc1cncc(OC)c1 [Example 237, N-(2-ethoxyethyl)-2-{[(5-methoxypyridin-3-yl)amino]sulfonyl}benzamide]
25 | > 7.80 | 7.34 | 7.28 | 7.57 | COCCN(C(=O)c1ccccc1S(=O)(=O)Nc1cncc(OC)c1)C(C)C [Example 244, N-isopropyl-N-(2-methoxyethyl)-2-{[(5-methoxypyridin-3-yl)amino]sulfonyl}benzamide]
26 | 6.46 | 6.12 | < 6.12 | 6.57 | CCOc1cncc(NS(=O)(=O)c2ccccc2C(=O)N2CCOCC2)c1 [Example 305, N-(5-ethoxypyridin-3-yl)-2-(morpholin-4-ylcarbonyl)benzenesulfonamide]
27 | 7.51 | 6.33 | 7.19 | 7.37 | Cc1cncc(NS(=O)(=O)c2ccccc2C(=O)N(C)C(C)C)c1 [Example 281, N-isopropyl-N-methyl-2-{[(5-methylpyridin-3-yl)amino]sulfonyl}benzamide]
28 | 6.84 | < 6.00 | 6.52 | 6.68 | O=C(NCCc1ccccn1)c1ccccc1S(=O)(=O)Nc1cccnc1 [Example 66, 2-[(pyridin-3-ylamino)sulfonyl]-N-(2-pyridin-2-ylethyl)benzamide]
29 | 8.00 | 6.97 | 7.72 | 8.06 | COc1cncc(NS(=O)(=O)c2ccccc2C(=O)NCCCc2ccccc2)c1 [Example 235, 2-{[(5-methoxypyridin-3-yl)amino]sulfonyl}-N-(3-phenylpropyl)benzamide]
30 | 7.15 | 6.25 | 6.87 | 7.20 | COc1ccncc1NS(=O)(=O)c1ccccc1C(=O)NC(C)C1CC1 (stereo not drawn) [Example 276, N-(1-cyclopropylethyl)-2-{[(4-methoxypyridin-3-yl)amino]sulfonyl}benzamide]
31 | 7.82 | 6.87 | 7.82 | 7.90 | Cc1ccncc1NS(=O)(=O)c1ccccc1C(=O)NCc1ccc(F)c(F)c1 [Example 259, N-(3,4-difluorobenzyl)-2-{[(4-methylpyridin-3-yl)amino]sulfonyl}benzamide]
